Data taken from paper PMC8274595, “Mechanism through Which Retrocyclin Targets Flavivirus Multiplication” (Journal of Virology, 2021).
Where two headings read alike, the source gives them in different places. Where no end group is shown, it is not given here.

Assays:
DENV NS2B-NS3 protease = details: cited from earlier work
DENV-2 = details: cited from earlier work
[1] = system: herpes simplex virus 1/2 (HSV-1/2) glycoprotein; details: cited from earlier work
HIV gp120 = details: cited from earlier work
[2] = system: influenza virus hemagglutinin; details: cited from earlier work
MR766 strain = test: Time-of-addition assay, ZIKV MR766 posttreatment; type: cell-based, Zika virus (ZIKV); details: Vero cells, RC-101 40 μM added 1 h postinfection for 71 h, MOI 0.1, plaque assay
WT DIII = molecular target: T1, WT DIII (Japanese encephalitis virus, UniProt P27395); test: Binding affinity, biolayer interferometry, WT DIII; design: species or system Japanese encephalitis virus (JEV); details: Octet QK, DIII immobilized, RC-101 200, 100, 50 nM, 1:1 binding model
T1 construct: The WT DIII expression vector was constructed using pET-22b(+) and preserved in our laboratory; pET-22b(+) normally gives a C-terminal His6); made in house; host or cells: E. coli BL21(DE3), pET-22b(+)

JEV NS3 = type: cell-based, Japanese encephalitis virus (JEV); details: BHK-21 cells
ZIKV replicon = ZIKV replicon luciferase assay; type: cell-based, Zika virus (ZIKV); details: BHK-21 cells, three independent experiments
JEV = type: cell-based, Japanese encephalitis virus (JEV); details: 50 μM RC-101, coadministration, BHK-21 cells
ZIKV NS2B-NS3pro = molecular target: T2, ZIKV NS2B-NS3pro (Zika virus, UniProt A0A024B7W1); test: Proteolytic activity of NS2B-NS3 protease; type: biochemical
T2 construct: the NS2B fragments were amplified by PCR; made in house; host or cells: E. coli BL21(DE3), pET28a

JEV N154A variant = type: cell-based, Japanese encephalitis virus (JEV); details: coadministration, BHK-21 cells, Western blot and plaque assay
ZIKV PRVABC 59 = test: Plaque assay, ZIKV PRVABC 59 virus production; type: cell-based, Zika virus (ZIKV); details: 100 μM, additional cell line U251 used, supernatant 47 h postinfection
JEV AT31 [3] = test: Viral titer reduction (plaque) assay, JEV in U251 cells; type: cell-based, Japanese encephalitis virus (JEV); details: MOI 0.1, six independent experiments
DE mutant DIII = molecular target: T3, DE mutant DIII (Japanese encephalitis virus, UniProt P27395, N661A/S658A/S659A/T657A); test: Binding affinity, biolayer interferometry, DE mutant DIII; design: species or system Japanese encephalitis virus (JEV); details: relative to WT DIII
T3 construct: DE loop mutant DIII (B), and bovine serum albumin (BSA) (C) were immobilized onto biosensors; pET-22b(+) normally gives a C-terminal His6); made in house

ZIKV MR766 = test: Plaque assay, ZIKV MR766 virus production; type: cell-based, Zika virus (ZIKV); details: additional cell line U251 used, supernatant 71 h postinfection
JEV H144A variant = type: cell-based, Japanese encephalitis virus (JEV); details: coadministration, BHK-21 cells, Western blot and plaque assay
ZIKV = test: Time-of-addition assay, ZIKV (PRVABC 59 and MR766); type: cell-based, Zika virus (ZIKV)
JEV AT31 [4] = test: Viral titer reduction (plaque) assay, JEV in BHK-21 cells; type: cell-based, Japanese encephalitis virus (JEV); details: MOI 0.1, six independent experiments
JEV Q258A variant = type: cell-based, Japanese encephalitis virus (JEV); details: coadministration, BHK-21 cells, Western blot and plaque assay
Vero cells = details: up to 100 μM, 72 h, CCK-8 assay

## GICRCICGRGICRCICGR (also: bicyclic or more (positions not given here)) [RC-1]
DENV NS2B-NS3 protease
  inhibition of DENV NS2B-NS3 protease: reported to inhibit DENV NS2B-NS3 protease
DENV-2
  inhibition of DENV-2 replication: inhibit DENV-2 replication

## CC[C@H](C)[C@@H]1NC(=O)CNC(=O)[C@H](CCCCN)NC(=O)CNC(=O)[C@@H]2CSSC[C@H](NC1=O)C(=O)N[C@@H](CCCNC(=N)N)C(=O)N[C@H]1CSSC[C@H](NC(=O)[C@H](CCCNC(=N)N)NC(=O)[C@@H]3CSSC[C@H](NC(=O)[C@H]([C@@H](C)CC)NC1=O)C(=O)NCC(=O)N[C@@H](CCCNC(=N)N)C(=O)NCC(=O)N[C@@H]([C@@H](C)CC)C(=O)N3)C(=O)N[C@@H]([C@@H](C)CC)C(=O)N2 [RC-101, retrocyclin-101]
[1]
  binding affinity to HSV-1/2 glycoprotein: high binding affinity
HIV gp120
  binding affinity to HIV gp120: high binding affinity
[2]
  binding affinity to influenza virus hemagglutinin: high binding affinity
MR766 strain
  inhibition of infection, posttreatment: inhibited MR766 strain infection
WT DIII
  kinetic dissociation (Kd): 0.000118 s⁻¹
JEV DE mutant
  resistance of mutant virus to RC-101: robust resistance to RC-101 in all assays
JEV NS3; JEV AT31 MOI 0.1, 1 h preinfection RC-101, lysates 23 h postinfection
  expression of JEV NS3: inhibited in a dose-dependent manner
JEV NS3; JEV AT31 MOI 0.1, RC-101 3.125 μM versus 0.78125 μM, 23 h postinfection
  unprocessed polyprotein precursor (>180 kDa) expression: significantly higher
JEV NS3; JEV AT31 MOI 0.1, RC-101 0.78125 and 3.125 μM, 23 h postinfection
  unprocessed polyprotein precursor (>180 kDa) presence: present
JEV NS3; JEV AT31 MOI 0.1, RC-101 12.5 and 50 μM, 23 h postinfection
  unprocessed polyprotein precursor (>180 kDa) presence: decreased
JEV H319A variant
  resistance of mutant virus to RC-101: resistance to RC-101 at the protein level and in the low-multiplication of infection (MOI) assay
ZIKV replicon; 2 h postelectroporation
  initial translation of replicon RNA (luciferase activity): little effect
ZIKV replicon; 48 h postelectroporation
  luciferase signal (replication): appreciable reduction
JEV; MOI 0.1, 24 h postinfection
  prM band (Western blot): hardly detectable
JEV; plaque assay
  viral titers decrease: approximately 3 log units
ZIKV NS2B-NS3pro
  IC50: 7.2 µM
JEV N154A variant
  inhibition of infection by mutant virus: inhibited infections
ZIKV PRVABC 59
  virus production (plaques): few plaques were found
JEV AT31 [3]
  inhibition of JEV infection (viral titer): robustly inhibited JEV infection
DE mutant DIII
  decrease of binding affinity, DE mutant versus WT DIII: 1 order of magnitude
ZIKV MR766; 12.5 μM
  virus production reduction: approximately 1 log unit
ZIKV MR766; 100 μM
  virus production reduction: approximately 7 log units
JEV H144A variant
  inhibition of infection by mutant virus: inhibited infections
ZIKV; IC98 from dose-response against ZIKV (Fig. 1)
  approximate IC98 against ZIKV: ~50 µM
ZIKV; Vero cells, RC-101 40 μM for 1 h before infection (-1 to 0 h), ZIKV MOI 0.1, plaque assay
  suppression of viral titers, pretreatment: no suppression of viral titers was observed
ZIKV; Vero cells, RC-101 40 μM with ZIKV MOI 0.1, 0 to 1 h, plaque assay
  inhibitory effect, coadministration: significant inhibitory effects
ZIKV; ZIKV (MOI 2.5) incubated with RC-101 40 μM at 37°C for 1 h, diluted 25-fold to infect Vero cells 1 h, plaque assay
  suppression of viral titers, virucidal treatment: no suppression of viral titers was observed
JEV T410A variant
  resistance of mutant virus to RC-101: robust resistance to RC-101 in all assays
JEV AT31 [4]
  inhibition of JEV infection (viral titer): robustly inhibited JEV infection
JEV Q258A variant
  sensitivity of mutant virus to RC-101: likely had increased sensitivity
Vero cells
  cytotoxicity (cell viability): marginal response even at 100 μM
